Laboratory results as given in EP1247803A2, “Indolinone compounds suitable for modulation of protein kinases” (Sugen, Inc., priority 1996, dated 1998).

Target: T1, FLK-1 receptor (Mus musculus, UniProt P35918)
T1 construct: expressed in transfected cells; host or cells: NIH3T3 C7#3
Test: FLK-1 ELISA (kinase activity of the FLK-1 receptor in FLK-1/NIH3T3 cells, VEGF stimulated)
Assay type: cell-based
Procedure, shortened: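 FLK-1-expressing NIH3T3 C7#3 cells, starved overnight in 0.1% FBS medium, were treated with compounds at a 1:200 final dilution (0.5% DMSO) for 2 h at 37 °C, with VEGF stimulation. FLK-1 kinase activity was read by ELISA on anti-rabbit IgG plates using affinity-purified anti-FLK-1 antiserum.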

T1 sequence (P35918 20-1345): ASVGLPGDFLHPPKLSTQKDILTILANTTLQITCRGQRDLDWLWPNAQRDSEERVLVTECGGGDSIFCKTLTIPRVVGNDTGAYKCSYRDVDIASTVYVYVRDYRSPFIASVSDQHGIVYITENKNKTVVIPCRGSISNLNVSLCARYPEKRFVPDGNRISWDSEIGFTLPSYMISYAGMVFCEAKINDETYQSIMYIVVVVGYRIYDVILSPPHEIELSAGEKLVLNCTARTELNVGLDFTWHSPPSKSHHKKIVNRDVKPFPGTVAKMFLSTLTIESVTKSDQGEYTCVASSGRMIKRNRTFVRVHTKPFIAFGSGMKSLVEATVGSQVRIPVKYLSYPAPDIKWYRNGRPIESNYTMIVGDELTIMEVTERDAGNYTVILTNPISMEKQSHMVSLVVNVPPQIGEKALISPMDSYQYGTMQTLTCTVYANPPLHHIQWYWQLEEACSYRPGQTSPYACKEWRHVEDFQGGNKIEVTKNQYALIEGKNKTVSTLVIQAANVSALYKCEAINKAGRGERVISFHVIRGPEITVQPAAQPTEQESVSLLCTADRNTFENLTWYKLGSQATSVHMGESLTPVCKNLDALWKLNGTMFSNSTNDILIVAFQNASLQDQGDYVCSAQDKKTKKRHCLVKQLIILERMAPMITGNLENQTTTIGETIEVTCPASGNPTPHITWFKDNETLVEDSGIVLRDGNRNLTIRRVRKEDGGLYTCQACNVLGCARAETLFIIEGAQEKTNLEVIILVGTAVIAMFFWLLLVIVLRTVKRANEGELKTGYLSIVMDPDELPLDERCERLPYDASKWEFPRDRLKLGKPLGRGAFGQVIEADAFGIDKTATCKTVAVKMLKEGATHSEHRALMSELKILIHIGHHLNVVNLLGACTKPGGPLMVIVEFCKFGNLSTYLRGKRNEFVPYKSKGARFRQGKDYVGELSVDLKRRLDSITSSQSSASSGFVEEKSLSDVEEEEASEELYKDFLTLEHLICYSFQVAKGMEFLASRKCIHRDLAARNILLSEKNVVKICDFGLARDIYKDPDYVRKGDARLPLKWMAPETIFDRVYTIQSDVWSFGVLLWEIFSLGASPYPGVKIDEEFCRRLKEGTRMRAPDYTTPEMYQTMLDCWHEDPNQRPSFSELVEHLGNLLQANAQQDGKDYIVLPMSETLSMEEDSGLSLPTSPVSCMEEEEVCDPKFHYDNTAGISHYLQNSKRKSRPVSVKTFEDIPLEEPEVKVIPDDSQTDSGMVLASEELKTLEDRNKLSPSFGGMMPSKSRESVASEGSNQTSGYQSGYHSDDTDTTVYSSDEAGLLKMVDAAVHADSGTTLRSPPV

Row | Compound | Fik Kinase %Inhibition
1 | O=C1Nc2ccc(I)cc2C1=Cc1c(Br)cnn1-c1ccc(Cl)cc1 [10725/B10] | 5.1%
2 | O=C1Nc2ccc(I)cc2C1=Cc1c[nH]cn1 [10725/B11] | -42.3%
